Three compounds from ChEMBL document CHEMBL4266047, “First Report of Plant-Derived β-Sitosterol with Antithrombotic, in Vivo Anticoagulant, and Thrombus-Preventing Activities in a Mouse Model” (J Nat Prod, 2018) can be followed below.

Series [1] has as its system Platelet. As to the kind of experiment: Antiplatelet activity in human platelet rich plasma up to 10 uM incubated for 5 mins measured after 300 secs. The class given is functional, cell-based.
The test system of series [2] is Platelet. As to the kind of experiment: Antiplatelet activity in human washed platelets up to 10 uM incubated for 5 mins measured after 300 secs. The format is functional, cell-based.
In series [3] the test system is Mus musculus. In words: Anticoagulant activity in Swiss albino mouse assessed as increase in prothrombin time at 50 mg/kg, iv measured after 5 hrs relative to control. The class given is functional.
Series [4] deals with Mus musculus. In words: Anticoagulant activity in Swiss albino mouse assessed as increase in activated partial thromboplastin time at 50 mg/kg, iv measured after 5 hrs relative to control. The format is functional.
The subject of series [5] is Mus musculus. In words: Anticoagulant activity in Swiss albino mouse assessed as tail bleeding time at 50 mg/kg, iv measured after 5 hrs (reference value: 45.3 +/- 2.5 sec). The class given is functional.
Series [6] concerns Mus musculus. As to the kind of experiment: Anticoagulant activity in Swiss albino mouse assessed as plasma clotting time at 50 mg/kg, iv measured after 5 hrs (reference value: 175.5 +/- 9.1 sec). The format is functional.
Series [7] concerns the target T1, Prothrombin (Homo sapiens, UniProt P00734). As to the kind of experiment: Inhibition of human thrombin at 7.5 uM using T1637 as substrate preincubated for 30 mins followed by heparin addition by SDS-PAGE analysis.
In series [8] the test system is Plasma. As to the kind of experiment: Anticoagulant activity in human platelet poor plasma assessed as prolongation of calcium clotting time after 3 mins. The class given is functional, cell-free.
Series [9] concerns Plasma. As to the kind of experiment: Anticoagulant activity in human platelet poor plasma assessed as prolongation of calcium clotting time at 2.5 uM after 3 mins. The format is functional, cell-free.
For series [10], the system named is Plasma. In words: Anticoagulant activity in human platelet poor plasma assessed as prolongation of calcium clotting time at 2.5 uM. The format is functional, cell-free. The settings on record: TDE = time-dependent effect.
Series [11] has as its system Plasma. As to the kind of experiment: Anticoagulant activity in human platelet poor plasma assessed as activated partial thromboplastin time at 10 uM after 3 mins (reference value: 14.2 +/- 1.3 sec). The class given is functional.
For series [12], the system named is Plasma. In words: Anticoagulant activity in human platelet poor plasma assessed as increase in prothrombin time at 1.25 to 15 uM after 3 mins. The class given is functional, cell-free.
For series [13], the system named is Blood. As to the kind of experiment: Anticoagulant activity in goat whole blood assessed as prolongation of calcium clotting time after 3 mins. The format is functional, tissue-based. The settings on record: Capra hircus.
Series [14] has as its target T1, Prothrombin. As to the kind of experiment: Uncompetitive inhibition of human thrombin using T1637 as substrate by Michaelis-Menten plot analysis.
Series [15] deals with T1, Prothrombin. In words: Inhibition of human thrombin using T1637 as substrate.
Series [16] has as its target T1, Prothrombin. As to the kind of experiment: Inhibition of human thrombin assessed as prolongation of fibrinogen clotting time of thrombin.
Series [17] has as its target Coagulation factor X (Homo sapiens) (UniProt P00742). In words: Inhibition of human factor 10a assessed as prothrombin activation using F3301 as substrate.
The subject of series [18] is Heterodera schachtii. As to the kind of experiment: Inhibition of human fibrinogen at 5 uM after 120 mins by SDS-PAGE analysis.
The target in series [19] is Coagulation factor X (Homo sapiens) (UniProt P00742). In words: Binding affinity to human factor 10a at 1.25 to 15 uM after 3 mins by fluorescence spectrometric analysis.
Sequence of Coagulation factor X (Homo sapiens) (P00742 41-179 limits assumed): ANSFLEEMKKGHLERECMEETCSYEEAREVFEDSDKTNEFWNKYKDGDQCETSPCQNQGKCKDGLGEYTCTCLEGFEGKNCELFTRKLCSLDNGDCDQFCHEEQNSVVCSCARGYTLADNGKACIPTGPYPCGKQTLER
Sequence of Coagulation factor X (Homo sapiens) (P00742 235-488 limits assumed): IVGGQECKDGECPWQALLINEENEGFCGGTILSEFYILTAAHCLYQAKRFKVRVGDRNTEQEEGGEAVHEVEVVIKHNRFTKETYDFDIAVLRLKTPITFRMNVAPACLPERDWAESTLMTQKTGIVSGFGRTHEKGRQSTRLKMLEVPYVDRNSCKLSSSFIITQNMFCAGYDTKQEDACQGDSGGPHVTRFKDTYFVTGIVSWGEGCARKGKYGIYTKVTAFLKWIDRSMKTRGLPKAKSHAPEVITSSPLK
Series [20] concerns Heterodera schachtii. As to the kind of experiment: Binding affinity to human fibrinogen at 1.25 to 15 uM after 3 mins by fluorescence spectrometric analysis.
In series [21] the target is T1, Prothrombin. In words: Binding affinity to human thrombin at 1.25 to 15 uM after 3 mins by fluorescence spectrometric analysis.
Series [22] deals with T1, Prothrombin. As to the kind of experiment: Binding affinity to human thrombin by isothermal calorimetric titration method.
In a further series the test system is HEK293. As to the kind of experiment: Cytotoxicity against HEK293 cells assessed as decrease in cell viability at 50 uM after 24 hrs by MTT assay. The class given is cell-based. As to conditions: human, hek293, 24 h. On the technique in general: Tetrazolium dyes change colour on reduction, which living cells bring about.
Series [23] deals with T1, Prothrombin. As to the kind of experiment: Inhibition of thrombin in human platelet rich plasma assessed as reduction in thrombin-induced platelet aggregation after 5 mins.
Series [24] has as its target T1, Prothrombin. As to the kind of experiment: Inhibition of thrombin in human washed platelets assessed as reduction in thrombin-induced platelet aggregation after 5 mins.
The test system of series [25] is Blood. As to the kind of experiment: Thrombolytic activity in goat non-heated blood clot assessed as clot lysed after 3 hrs (reference value: 2.1 +/- 0.3 mg/microM). The format is functional, Capra hircus.
Series [26] concerns Blood. In words: Thrombolytic activity in goat heated blood clot assessed as clot lysed after 3 hrs (reference value: 0.7 +/- 0.2 mg/microM). The format is functional, Capra hircus.
Series [27] relates to Blood. In words: Thrombolytic activity in goat heated blood clot assessed as plasmin activation at 1 uM using V0882 as substrate incubated for 20 mins measured for 15 mins in presence of serine protease inhibitor PMSF. The class given is functional, tissue-based. The settings on record: Capra hircus.
For series [28], the system named is Blood. In words: Thrombolytic activity in goat non-heated blood clot assessed as plasmin activation at 1 uM using V0882 as substrate incubated for 20 mins measured for 15 mins. The format is functional, Capra hircus.
In series [29] the test system is Blood. In words: Thrombolytic activity in goat heated blood clot assessed as plasmin activation at 1 uM using V0882 as substrate incubated for 20 mins measured for 15 mins. The format is functional, Capra hircus.
The subject of series [30] is Blood. In words: Thrombolytic activity in goat non-heated blood clot assessed as plasmin activation at 1 uM using V0882 as substrate incubated for 20 mins measured for 15 mins in presence of serine protease inhibitor PMSF. The class given is functional, tissue-based. The settings on record: Capra hircus.
For another series, the system named is Erythrocyte. As to the kind of experiment: Hemolytic activity against human erythrocytes assessed as hemolysis at 2.5 to 50 uM after 90 mins. The format is ADME, cell-based. The settings on record: 1.5 h.
In series [31] the test system is Mus musculus. As to the kind of experiment: Defibrinogenation activity in Swiss albino mouse plasma at 50 mg/kg, iv measured after 5 hrs. The format is functional, organism-based.
In series [32] the test system is Mus musculus. As to the kind of experiment: Antithrombotic activity in Swiss albino mouse tail thrombosis model assessed as inhibition of k-carrageenan-induced thrombus formation at 12.5 mg/kg, po administered for one week followed by k-carrageenan challenge 30 mins post last compound dose and measured after 24 hrs. The format is functional.
Series [33] relates to Mus musculus. In words: Antithrombotic activity in Swiss albino mouse tail thrombosis model assessed as inhibition of k-carrageenan-induced thrombus formation at 25 mg/kg, po administered for one week followed by k-carrageenan challenge 30 mins post last compound dose and measured after 24 hrs. The class given is functional.
The test system of series [34] is Mus musculus. As to the kind of experiment: Antithrombotic activity in Swiss albino mouse tail thrombosis model assessed as inhibition of k-carrageenan-induced thrombus formation at 50 mg/kg, po administered for one week followed by k-carrageenan challenge 30 mins post last compound dose and measured after 24 hrs. The format is functional.
Series [35] relates to Mus musculus. As to the kind of experiment: Antithrombotic activity in Swiss albino mouse tail thrombosis model assessed as inhibition of k-carrageenan-induced thrombus formation at 12.5 mg/kg, po administered for one week followed by k-carrageenan challenge 30 mins post last compound dose and measured after 48 hrs. The class given is functional.
In series [36] the test system is Mus musculus. As to the kind of experiment: Antithrombotic activity in Swiss albino mouse tail thrombosis model assessed as inhibition of k-carrageenan-induced thrombus formation at 25 mg/kg, po administered for one week followed by k-carrageenan challenge 30 mins post last compound dose and measured after 48 hrs. The format is functional.
The subject of series [37] is Mus musculus. As to the kind of experiment: Antithrombotic activity in Swiss albino mouse tail thrombosis model assessed as inhibition of k-carrageenan-induced thrombus formation at 50 mg/kg, po administered for one week followed by k-carrageenan challenge 30 mins post last compound dose and measured after 48 hrs. The class given is functional.
Series [38] has as its system Mus musculus. As to the kind of experiment: Antithrombotic activity in Swiss albino mouse tail thrombosis model assessed as inhibition of k-carrageenan-induced thrombus formation at 12.5 mg/kg, po administered for one week followed by k-carrageenan challenge 30 mins post last compound dose and measured after 72 hrs. The format is functional.
The subject of series [39] is Mus musculus. In words: Antithrombotic activity in Swiss albino mouse tail thrombosis model assessed as inhibition of k-carrageenan-induced thrombus formation at 25 mg/kg, po administered for one week followed by k-carrageenan challenge 30 mins post last compound dose and measured after 72 hrs. The format is functional.
The subject of series [40] is Mus musculus. In words: Antithrombotic activity in Swiss albino mouse tail thrombosis model assessed as inhibition of k-carrageenan-induced thrombus formation at 50 mg/kg, po administered for one week followed by k-carrageenan challenge 30 mins post last compound dose and measured after 72 hrs. The format is functional.
Series [41] deals with Mus musculus. As to the kind of experiment: Antithrombotic activity in Swiss albino mouse tail thrombosis model assessed as inhibition of k-carrageenan-induced thrombus formation administered orally for one week followed by k-carrageenan challenge 30 mins post last compound dose and measured after 24 to 72 hrs. The class given is functional, organism-based.

The source made the active and inactive calls. The rule behind the calls is not given here.

As to `CC(=O)Oc1ccccc1C(=O)O`, the result in the series with Platelet [1] and with Platelet [2] was Active.

On to `CC1CNc2c(cccc2S(=O)(=O)N[C@@H](CCCNC(=N)N)C(=O)N2CC[C@@H](C)C[C@@H]2C(=O)O)C1` (some centres not stated) [ARGATROBAN], for which the “fold change (FC)” value in the series with Mus musculus [3] turned out to be 4; with Mus musculus [4] it was 2.3. The Time with Mus musculus [5] is on record as 143.5 s; in the series on Mus musculus [6], 238.6 s.

As to `CC[C@H](CC[C@@H](C)[C@H]1CC[C@H]2[C@@H]3CC=C4C[C@@H](O)CC[C@]4(C)[C@H]3CC[C@]12C)C(C)C` [BETA-SITOSTEROL], on Prothrombin [7], the inhibition result was “Active”. Further, the Activity result is “Dose-dependent effect” in the series with Plasma [8]; “Tde” with Plasma [10]; “Dose-dependent effect” in the series on Blood [13]; “Non-Toxic” with HEK293; 7.7 mg/µM with Blood [25]; 1 mg/µM in the series with Blood [26]. Moreover, the figures for the Activity in the series with Blood [28], in the series with Blood [29] and in the series on Erythrocyte were 15.8 mg/µM, 9.2 mg/µM and “Non-Toxic”, respectively. The outcome in the series with Plasma [9], in the series with Plasma [12], at Prothrombin [21], in the series on Blood [27] and in the series on Blood [30] was Active. In addition, the APTT in the series on Plasma [11] turned out to be 28.2 s. The same compound gave a Ki on Prothrombin [14] of 267 nM. Moreover, the inhibition result at Prothrombin [15], at Prothrombin [16], at Prothrombin [23], on Prothrombin [24] and in the series on Mus musculus [41] was “Dose-dependent effect” each time. Moreover, the inhibition result (in series [17]; in the series on Heterodera schachtii [18]) was “inactive” in each case. The result (in series [19]; in the series with Heterodera schachtii [20]; in the series on Mus musculus [31]) was inactive. Also, the Ka at Prothrombin [22] was found to be 109 M⁻¹. The “fold change (FC)” value in the series on Mus musculus [3] was 1.1; with Mus musculus [4], 1.6. Also, the Time in the series with Mus musculus [5] is listed as 61 s; in the series with Mus musculus [6] it was 193.5 s. Also, the inhibition in vivo at 12.5 mg/kg in the series with Mus musculus [32] worked out at 10.5%; in the series with Mus musculus [35], 14.5%; in the series with Mus musculus [38] it was 23.2%. For the same compound, the inhibition in vivo at 25 mg/kg in the series on Mus musculus [33] was determined as 15.2%; with Mus musculus [36] it was 31.3%; in the series with Mus musculus [39], 36.5%. Also, the inhibition in vivo at 50 mg/kg in the series with Mus musculus [34] was determined as 23.4%; in the series on Mus musculus [37], 42.3%; with Mus musculus [40], 47.3%.

A word on the Ki: it is a dissociation constant, usually derived from enzyme kinetics or from competition with a known ligand. Read a low Ki as a stronger hold on the target. In general, inhibition in vivo refers to how much of the control response was suppressed.
